The record followed here is patent US10519152B2, “Compounds and their use in treating cancer” (AstraZeneca AB, priority 2017, dated 2019).

The structures appear in SMILES notation.

This test has as its target T1, Estrogen Receptor (ERα) in MCF-7 human ductal carcinoma breast cell line (Homo sapiens, UniProt P03372).
T1 construct: endogenous in cells; host or cells: MCF-7
T1 sequence (P03372 1-595): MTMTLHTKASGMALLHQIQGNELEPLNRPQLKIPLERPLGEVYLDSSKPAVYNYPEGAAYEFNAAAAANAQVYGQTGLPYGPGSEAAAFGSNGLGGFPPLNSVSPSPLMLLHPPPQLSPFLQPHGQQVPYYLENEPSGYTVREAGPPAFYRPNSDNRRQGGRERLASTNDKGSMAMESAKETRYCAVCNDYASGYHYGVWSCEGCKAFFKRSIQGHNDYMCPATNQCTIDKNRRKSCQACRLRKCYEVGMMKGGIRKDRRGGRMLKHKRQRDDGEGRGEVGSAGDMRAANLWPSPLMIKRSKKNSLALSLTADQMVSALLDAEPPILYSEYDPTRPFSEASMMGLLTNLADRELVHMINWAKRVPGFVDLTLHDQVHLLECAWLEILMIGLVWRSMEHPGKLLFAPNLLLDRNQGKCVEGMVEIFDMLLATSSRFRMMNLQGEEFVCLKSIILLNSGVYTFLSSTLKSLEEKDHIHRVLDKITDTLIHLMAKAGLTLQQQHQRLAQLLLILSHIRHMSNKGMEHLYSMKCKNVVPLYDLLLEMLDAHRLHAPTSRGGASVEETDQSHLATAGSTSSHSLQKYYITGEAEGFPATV
The test is described as follows: MCF-7 ER degradation assay (cell based immuno-fluorescence). As to conditions: MCF-7 cells; for ER degradation ≥ 90% at 0.3 μM: ER degradation by fulvestrant at 0.3 μM is defined as 100%; for DC50: 18-22 hours incubation, 50% reduction of ERα expression, single experiment or average of two or more, read-out: MCF-7 ER degradation IC50. The gist of the method: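 MCF-7 human ductal carcinoma breast cells were seeded at 3.75×10^4 cells per mL (40 μL per well) in 384 well plates with phenol red free DMEM containing 2 mM L-Glutamine and 5% (v/v) Charcoal/Dextran treated foetal calf serum. After overnight culture, compounds were acoustically dispensed, incubated 18-22 hours, then cells were formaldehyde-fixed and immunostained for ERα.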

For the compound `Cc1ncsc1-c1ccc(CNC(=O)[C@@H]2C[C@@H](O)CN2C(=O)[C@@H](NC(=O)COCCCOCCCCOc2cc(F)c([C@@H]3c4[nH]c5ccccc5c4C[C@@H](C)N3CC(C)(C)F)c(F)c2)C(C)(C)C)cc1` [Example 129, (2S,4R)-1-((S)-2-(2-(3-(4-(3,5-Difluoro-4-((1R,3R)-2-(2-fluoro-2-methylpropyl)-3-methyl-2,3,4,9-tetrahydro-1H-pyrido[3,4-b]indol-1-yl)phenoxy)butoxy)propoxy)acetamido)-3,3-dimethylbutanoyl)-4-hydroxy-N-(4-(4-methylthiazol-5-yl)benzyl)pyrrolidine-2-carboxamide], the “ER degradation ≥ 90% at 0.3 μM” value is given as “••” and the DC50 was found to be 0.8 nM.
With `Cc1ncsc1-c1ccc([C@H](C)NC(=O)[C@@H]2C[C@@H](O)CN2C(=O)[C@@H](NC(=O)COCCCCCOCCOc2cc(F)c([C@@H]3c4[nH]c5ccccc5c4C[C@@H](C)N3CC(C)(C)F)c(F)c2)C(C)(C)C)cc1` [Example 157, (2S,4R)-1-((S)-2-(2-((5-(2-(3,5-Difluoro-4-((1R,3R)-2-(2-fluoro-2-methylpropyl)-3-methyl-2,3,4,9-tetrahydro-1H-pyrido[3,4-b]indol-1-yl)phenoxy)ethoxy)pentyl)oxy)acetamido)-3,3-dimethylbutanoyl)-4-hydroxy-N—((S)-1-(4-(4-methylthiazol-5-yl)phenyl)ethyl)pyrrolidine-2-carboxamide], the “ER degradation ≥ 90% at 0.3 μM” value is listed as “••” and the DC50 came out at 0.4 nM.
As to `Cc1ncsc1-c1ccc(CNC(=O)[C@@H]2C[C@@H](O)CN2C(=O)[C@@H](NC(=O)COCCCCCCCOc2cc(F)c([C@@H]3c4[nH]c5ccccc5c4C[C@@H](C)N3CC(C)(C)F)c(F)c2)C(C)(C)C)cc1` [Example 7, (2S,4R)-1-((S)-2-(2-((7-(3,5-Difluoro-4-((1R,3R)-2-(2-fluoro-2-methylpropyl)-3-methyl-2,3,4,9-tetrahydro-1H-pyrido[3,4-b]indol-1-yl)phenoxy)heptyl)oxy)acetamido)-3,3-dimethylbutanoyl)-4-hydroxy-N-(4-(4-methylthiazol-5-yl)benzyl)pyrrolidine-2-carboxamide], the “ER degradation ≥ 90% at 0.3 μM” value is recorded as “••” and the DC50 was 1.6 nM.
Consider `CC(=O)O[C@@H]1C[C@@H](C(=O)NCc2ccc(-c3scnc3C)cc2)N(C(=O)[C@@H](NC(=O)COCCOCCOCCOc2cc(F)c([C@@H]3c4[nH]c5ccccc5c4C[C@@H](C)N3CC(C)(C)F)c(F)c2)C(C)(C)C)C1` [Example 34, (3R,5S)-1-((S)-2-(tert-Butyl)-14-(3,5-difluoro-4-((1R,3R)-2-(2-fluoro-2-methylpropyl)-3-methyl-2,3,4,9-tetrahydro-1H-pyrido[3,4-b]indol-1-yl)phenoxy)-4-oxo-6,9,12-trioxa-3-azatetradecanoyl)-5-((4-(4-methylthiazol-5-yl)benzyl)carbamoyl)pyrrolidin-3-yl Acetate], for which the “ER degradation ≥ 90% at 0.3 μM” value is “•” and the DC50 was 1 nM.
Consider `Cc1ncsc1-c1ccc(CNC(=O)[C@@H]2C[C@@H](O)CN2C(=O)[C@@H](NC(=O)COCCOCCCCCOc2cnc([C@@H]3c4[nH]c5ccccc5c4C[C@@H](C)N3CC(F)(F)F)c(F)c2)C(C)(C)C)cc1` [Example 165, (2S,4R)-1-((S)-2-(2-(2-((5-((5-Fluoro-6-((1S,3R)-3-methyl-2-(2,2,2-trifluoroethyl)-2,3,4,9-tetrahydro-1H-pyrido[3,4-b]indol-1-yl)pyridin-3-yl)oxy)pentyl)oxy)ethoxy)acetamido)-3,3-dimethylbutanoyl)-4-hydroxy-N-(4-(4-methylthiazol-5-yl)benzyl)pyrrolidine-2-carboxamide], for which the “ER degradation ≥ 90% at 0.3 μM” value is reported as “••” and the DC50 worked out at 4.4 nM.
`Cc1ncsc1-c1ccc(CNC(=O)[C@@H]2C[C@@H](O)CN2C(=O)[C@@H](NC(=O)CCCc2ccc(COc3cc(F)c([C@@H]4c5[nH]c6ccccc6c5C[C@@H](C)N4CC(C)(C)F)c(F)c3)nc2)C(C)(C)C)cc1` [Example 141, (2S,4R)-1-((S)-2-(4-(6-((3,5-Difluoro-4-((1R,3R)-2-(2-fluoro-2-methylpropyl)-3-methyl-2,3,4,9-tetrahydro-1H-pyrido[3,4-b]indol-1-yl)phenoxy)methyl)pyridin-3-yl)butanamido)-3,3-dimethylbutanoyl)-4-hydroxy-N-(4-(4-methylthiazol-5-yl)benzyl)pyrrolidine-2-carboxamide]: the “ER degradation ≥ 90% at 0.3 μM” value is on record as “•” and the DC50 was found to be 0.9 nM.
Consider `Cc1ncsc1-c1ccc(CNC(=O)[C@@H]2C[C@@H](O)CN2C(=O)[C@@H](NC(=O)COCCOCCCCCOc2cnc([C@@H]3c4[nH]c5ccccc5c4C[C@@H](C)N3CC(C)(F)F)c(F)c2)C(C)(C)C)cc1` [Example 164, (2S,4R)-1-((S)-2-(2-(2-((5-((6-((1S,3R)-2-(2,2-Difluoropropyl)-3-methyl-2,3,4,9-tetrahydro-1H-pyrido[3,4-b]indol-1-yl)-5-fluoropyridin-3-yl)oxy)pentyl)oxy)ethoxy)acetamido)-3,3-dimethylbutanoyl)-4-hydroxy-N-(4-(4-methylthiazol-5-yl)benzyl)pyrrolidine-2-carboxamide], for which the “ER degradation ≥ 90% at 0.3 μM” value is recorded as “••” and the DC50 is 4.2 nM.
On the same counts, the results for `COC(=O)[C@@H](C)CN1[C@H](c2c(F)cc(OCCOCCOCCOCC(=O)N[C@H](C(=O)N3C[C@H](O)C[C@H]3C(=O)NCc3ccc(-c4scnc4C)cc3)C(C)(C)C)cc2F)c2[nH]c3ccccc3c2C[C@H]1C` [Example 29] are “••” and 2.4 nM.
As to `Cc1ncsc1-c1ccc(CNC(=O)[C@@H]2C[C@@H](O)CN2C(=O)[C@@H](NC(=O)COCCCCCOc2ccc([C@@H]3c4[nH]c5ccccc5c4C[C@@H](C)N3CC(F)F)nc2)C(C)(C)C)cc1` [Example 17, (2S,4R)-1-((S)-2-(2-((5-((6-((1S,3R)-2-(2,2-Difluoroethyl)-3-methyl-2,3,4,9-tetrahydro-1H-pyrido[3,4-b]indol-1-yl)pyridin-3-yl)oxy)pentyl)oxy)acetamido)-3,3-dimethylbutanoyl)-4-hydroxy-N-(4-(4-methylthiazol-5-yl)benzyl)pyrrolidine-2-carboxamide], the “ER degradation ≥ 90% at 0.3 μM” value is recorded as “•” and the DC50 was 41 nM.
`Cc1ncsc1-c1ccc(CNC(=O)[C@@H]2C[C@@H](O)CN2C(=O)[C@@H](NC(=O)CCCOCCCCCCOc2cc(F)c([C@@H]3c4[nH]c5ccccc5c4C[C@@H](C)N3CC(C)(C)F)c(F)c2)C(C)(C)C)cc1` [Example 112, (2S,4R)-1-((S)-2-(4-((6-(3,5-difluoro-4-((1R,3R)-2-(2-fluoro-2-methylpropyl)-3-methyl-2,3,4,9-tetrahydro-1H-pyrido[3,4-b]indol-1-yl)phenoxy)hexyl)oxy)butanamido)-3,3-dimethylbutanoyl)-4-hydroxy-N-(4-(4-methylthiazol-5-yl)benzyl)pyrrolidine-2-carboxamide]: the “ER degradation ≥ 90% at 0.3 μM” value was “••” and the DC50 came out at 2.2 nM.
As to `Cc1ncsc1-c1ccc(CNC(=O)[C@@H]2C[C@@H](O)CN2C(=O)[C@@H](NC(=O)COCCOc2ccc(COc3cc(F)c([C@@H]4c5[nH]c6ccccc6c5C[C@@H](C)N4CC(C)(C)F)c(F)c3)cc2)C(C)(C)C)cc1` [Example 5, (2S,4R)-1-((S)-2-(2-(2-(4-((3,5-Difluoro-4-((1R,3R)-2-(2-fluoro-2-methylpropyl)-3-methyl-2,3,4,9-tetrahydro-1H-pyrido[3,4-b]indol-1-yl)phenoxy)methyl)phenoxy)ethoxy)acetamido)-3,3-dimethylbutanoyl)-4-hydroxy-N-(4-(4-methylthiazol-5-yl)benzyl)pyrrolidine-2-carboxamide], the “ER degradation ≥ 90% at 0.3 μM” value is reported as “•” and the DC50 was found to be 2.6 nM.
As for `Cc1ncsc1-c1ccc(CNC(=O)[C@@H]2C[C@@H](O)CN2C(=O)[C@@H](NC(=O)COCc2ccc(C(=O)Nc3cc(F)c([C@@H]4c5[nH]c6ccccc6c5C[C@@H](C)N4CC(C)(C)F)c(F)c3)nc2)C(C)(C)C)cc1` [Example 144, N-(3,5-Difluoro-4-((1R,3R)-2-(2-fluoro-2-methylpropyl)-3-methyl-2,3,4,9-tetrahydro-1H-pyrido[3,4-b]indol-1-yl)phenyl)-5-((2-(((S)-1-((2S,4R)-4-hydroxy-2-((4-(4-methylthiazol-5-yl)benzyl)carbamoyl)pyrrolidin-1-yl)-3,3-dimethyl-1-oxobutan-2-yl)amino)-2-oxoethoxy)methyl)picolinamide], the “ER degradation ≥ 90% at 0.3 μM” value was “••” and the DC50 was determined as 0.5 nM.
